In data set [1] the target is T1, Glycogen phosphorylase, muscle form (Homo sapiens, UniProt P11217).
T1 sequence (P11217 whole entry): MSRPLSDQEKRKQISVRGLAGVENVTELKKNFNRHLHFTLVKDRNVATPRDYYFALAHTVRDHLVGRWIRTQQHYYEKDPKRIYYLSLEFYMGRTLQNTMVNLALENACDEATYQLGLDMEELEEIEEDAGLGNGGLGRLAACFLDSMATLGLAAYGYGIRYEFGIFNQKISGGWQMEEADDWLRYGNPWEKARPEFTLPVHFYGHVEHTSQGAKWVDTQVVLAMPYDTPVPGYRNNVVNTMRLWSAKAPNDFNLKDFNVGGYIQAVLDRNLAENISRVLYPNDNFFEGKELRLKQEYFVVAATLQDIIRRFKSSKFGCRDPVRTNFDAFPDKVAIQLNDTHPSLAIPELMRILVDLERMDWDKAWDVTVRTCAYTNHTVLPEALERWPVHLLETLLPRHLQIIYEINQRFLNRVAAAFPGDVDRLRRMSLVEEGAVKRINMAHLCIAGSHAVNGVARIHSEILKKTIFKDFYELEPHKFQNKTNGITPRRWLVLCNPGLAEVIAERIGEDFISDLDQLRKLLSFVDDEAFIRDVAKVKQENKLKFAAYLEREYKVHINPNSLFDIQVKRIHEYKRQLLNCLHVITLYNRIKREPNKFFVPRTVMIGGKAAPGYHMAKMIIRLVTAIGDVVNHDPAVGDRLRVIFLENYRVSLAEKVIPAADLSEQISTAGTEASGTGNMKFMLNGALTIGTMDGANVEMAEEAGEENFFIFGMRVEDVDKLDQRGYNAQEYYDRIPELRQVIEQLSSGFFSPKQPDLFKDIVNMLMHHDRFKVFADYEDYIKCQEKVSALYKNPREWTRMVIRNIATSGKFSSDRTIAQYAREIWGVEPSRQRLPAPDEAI
Nature of the data set: Inhibitory activity against HMGP(human muscle glycogen phosphorylase).

The target of data set [2] is T2, Glycogen phosphorylase, liver form (Homo sapiens, UniProt P06737).
T2 sequence (P06737 whole entry): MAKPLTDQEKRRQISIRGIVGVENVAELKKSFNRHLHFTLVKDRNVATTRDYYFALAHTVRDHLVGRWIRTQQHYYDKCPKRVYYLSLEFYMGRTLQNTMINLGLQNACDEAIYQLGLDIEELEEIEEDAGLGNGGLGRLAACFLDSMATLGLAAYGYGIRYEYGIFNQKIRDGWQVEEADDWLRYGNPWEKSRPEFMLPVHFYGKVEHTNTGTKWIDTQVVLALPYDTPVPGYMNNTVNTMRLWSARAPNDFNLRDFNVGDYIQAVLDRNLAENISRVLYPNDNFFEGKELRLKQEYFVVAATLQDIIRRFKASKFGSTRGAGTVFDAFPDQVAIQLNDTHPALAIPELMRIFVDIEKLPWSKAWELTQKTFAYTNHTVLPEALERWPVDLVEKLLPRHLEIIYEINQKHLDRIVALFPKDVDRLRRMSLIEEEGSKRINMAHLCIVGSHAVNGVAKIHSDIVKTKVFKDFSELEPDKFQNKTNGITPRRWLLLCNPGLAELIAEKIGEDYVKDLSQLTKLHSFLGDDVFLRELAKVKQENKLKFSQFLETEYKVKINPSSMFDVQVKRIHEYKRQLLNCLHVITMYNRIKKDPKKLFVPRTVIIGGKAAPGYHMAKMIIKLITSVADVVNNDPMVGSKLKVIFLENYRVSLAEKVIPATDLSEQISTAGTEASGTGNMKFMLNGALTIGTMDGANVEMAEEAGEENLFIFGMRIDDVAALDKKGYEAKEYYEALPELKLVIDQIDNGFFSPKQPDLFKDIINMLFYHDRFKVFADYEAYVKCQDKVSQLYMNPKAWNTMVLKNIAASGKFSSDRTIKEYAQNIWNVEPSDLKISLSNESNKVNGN
The data set is described as follows: Inhibitory activity against HLGP(human liver glycogen phosphorylase).

Data set [3] has as its target T3, Glycogen phosphorylase, liver form (Mus musculus, UniProt Q9ET01).
T3 sequence (Q9ET01 whole entry): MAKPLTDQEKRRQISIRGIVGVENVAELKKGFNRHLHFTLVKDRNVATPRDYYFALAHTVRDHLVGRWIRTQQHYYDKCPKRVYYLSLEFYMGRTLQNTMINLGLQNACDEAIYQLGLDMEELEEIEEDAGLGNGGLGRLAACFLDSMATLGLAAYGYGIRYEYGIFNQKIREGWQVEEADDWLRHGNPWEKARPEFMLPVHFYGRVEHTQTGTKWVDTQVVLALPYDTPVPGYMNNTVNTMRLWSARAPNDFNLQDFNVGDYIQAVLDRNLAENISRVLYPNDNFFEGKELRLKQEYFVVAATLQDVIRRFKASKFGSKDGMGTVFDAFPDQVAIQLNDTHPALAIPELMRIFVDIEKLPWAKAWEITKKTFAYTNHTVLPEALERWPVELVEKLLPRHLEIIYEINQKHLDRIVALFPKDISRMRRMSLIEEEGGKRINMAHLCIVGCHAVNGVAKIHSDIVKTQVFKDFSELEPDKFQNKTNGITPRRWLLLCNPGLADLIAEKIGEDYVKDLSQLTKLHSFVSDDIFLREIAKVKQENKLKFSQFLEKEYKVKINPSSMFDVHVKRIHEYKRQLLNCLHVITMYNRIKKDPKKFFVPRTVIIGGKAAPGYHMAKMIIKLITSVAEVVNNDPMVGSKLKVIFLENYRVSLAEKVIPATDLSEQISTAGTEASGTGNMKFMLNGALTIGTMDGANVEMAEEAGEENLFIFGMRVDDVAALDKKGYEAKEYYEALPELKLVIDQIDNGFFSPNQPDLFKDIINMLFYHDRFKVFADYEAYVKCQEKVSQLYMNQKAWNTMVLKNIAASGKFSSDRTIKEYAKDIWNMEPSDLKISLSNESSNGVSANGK
Nature of the data set: Inhibitory activity against mouse liver glycogen phosphorylase.

Data set [4] concerns the target T4, Glycogen phosphorylase, liver form (Rattus norvegicus, UniProt P09811).
T4 sequence (P09811 whole entry): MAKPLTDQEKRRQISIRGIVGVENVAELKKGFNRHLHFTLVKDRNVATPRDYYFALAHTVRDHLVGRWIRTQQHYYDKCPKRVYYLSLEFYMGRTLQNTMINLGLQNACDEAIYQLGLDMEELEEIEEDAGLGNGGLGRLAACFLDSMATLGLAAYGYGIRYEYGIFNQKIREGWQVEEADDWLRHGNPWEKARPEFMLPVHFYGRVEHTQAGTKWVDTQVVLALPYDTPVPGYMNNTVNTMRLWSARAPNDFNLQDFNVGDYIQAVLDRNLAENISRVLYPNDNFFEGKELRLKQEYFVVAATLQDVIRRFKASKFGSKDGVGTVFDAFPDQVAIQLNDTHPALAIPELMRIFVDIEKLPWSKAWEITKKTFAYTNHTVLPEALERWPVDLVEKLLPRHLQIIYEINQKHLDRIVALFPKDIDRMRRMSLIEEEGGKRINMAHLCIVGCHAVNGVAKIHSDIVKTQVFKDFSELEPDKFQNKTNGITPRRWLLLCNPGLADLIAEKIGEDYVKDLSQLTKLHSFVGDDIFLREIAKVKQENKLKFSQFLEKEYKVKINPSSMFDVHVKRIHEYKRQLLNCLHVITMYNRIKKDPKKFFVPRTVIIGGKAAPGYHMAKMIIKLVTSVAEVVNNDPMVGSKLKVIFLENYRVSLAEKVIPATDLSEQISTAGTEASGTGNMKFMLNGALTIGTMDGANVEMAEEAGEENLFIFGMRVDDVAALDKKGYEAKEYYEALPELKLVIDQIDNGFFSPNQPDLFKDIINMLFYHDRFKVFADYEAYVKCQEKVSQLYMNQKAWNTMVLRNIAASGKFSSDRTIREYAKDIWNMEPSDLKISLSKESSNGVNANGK
The data set is described as follows: Inhibitory activity against rat liver glycogen phosphorylase.

Data set [5] in a line: Half-life in male mice after 1 mg/kg intravenous dose. The settings on record: mouse, in vivo. It is filed as ADME, organism-based. More on the design: dose 1 mg/kg, route intravenous.
Data set [6] in a line: Cmax in male mice after 2 mg/kg oral dose. It is filed as ADME, organism-based. The settings on record: mouse, in vivo. More on the design: dose 2 mg/kg, route oral.
Data set [7] can be described thus: Bioavailability in male mice, 2mg/kg oral and 1 mg/kg intravenous dose. It is filed as ADME, organism-based. The settings on record: mouse, in vivo.

The structures appear in SMILES notation.

The source of these data is ChEMBL document CHEMBL1136449, “A new class of glycogen phosphorylase inhibitors” (Bioorg Med Chem Lett, 2003).

As for `O=C(Nc1cc(F)ccc1Oc1ccc(C(=O)O)c(C(=O)O)c1)c1cc(Cl)ccn1`, the values for the IC50 in data set [1] and in data set [2] were 647 nM and 78 nM, respectively.

For the molecule `O=C(Nc1cc2ccccc2cc1Oc1ccc(C(=O)O)c(C(=O)O)c1)c1ccccc1`, the IC50 in data set [1] came to 12300 nM; in data set [2], 2880 nM.

As to `COc1ccnc(C(=O)Nc2ccccc2Oc2ccc(C(=O)O)c(C(=O)O)c2)c1`, the IC50 was 200 nM in data set [1], 18 nM in data set [3], 24 nM in data set [4] and 20 nM in data set [2].

For the molecule `O=C(Nc1ccccc1Oc1ccc(C(=O)O)c(C(=O)O)c1)c1cc([N+](=O)[O-])ccn1`, the IC50 was 25 nM in data set [1] and 3 nM in data set [2].

As for `N#Cc1ccnc(C(=O)Nc2ccccc2Oc2ccc(C(=O)O)c(C(=O)O)c2)c1`, the IC50 in data set [1] came to 167 nM; in data set [3], 14 nM; in data set [4] it was 19 nM; in data set [2], 16 nM.

For `O=C(Nc1ccccc1Oc1ccc(C(=O)O)c(C(=O)O)c1)c1cc(I)ccn1`, the IC50 in data set [1] is 468 nM; in data set [2] it was 39 nM.

Turning to `O=C(Nc1c(F)cccc1Oc1ccc(C(=O)O)c(C(=O)O)c1)c1cc(Cl)ccn1`, in data set [5], the half-life was 1 h. For the same molecule, the IC50 is 60 nM in data set [1], under 9 nM in data set [3], under 9 nM in data set [4] and 10 nM in data set [2]. In addition, the Cmax in data set [6] was 44 nM. Besides, the bioavailability in data set [7] was found to be 4.1%.

Take `O=C(Nc1cc2ccccc2cc1Oc1ccc(C(=O)O)c(C(=O)O)c1)c1ccccn1`: the IC50 in data set [1] was 844 nM; in data set [2], 167 nM.

In the case of `O=C(Nc1cc(F)ccc1Oc1ccc(C(=O)O)c(C(=O)O)c1)c1cc([N+](=O)[O-])ccn1`, the IC50 in data set [1] is 109 nM; in data set [2] it was 13 nM.

For the molecule `CCc1ccnc(C(=O)Nc2cc3ccccc3cc2Oc2ccc(C(=O)O)c(C(=O)O)c2)c1`, the half-maximal inhibitory concentration (IC50) in data set [1] is 29 nM; in data set [2], 4 nM.

For the molecule `COc1ccnc(C(=O)Nc2c(F)cccc2Oc2ccc(C(=O)O)c(C(=O)O)c2)c1`, the IC50 in data set [1] was determined as 110 nM; in data set [2], 11 nM.

As to `O=C(Nc1c(F)cccc1Oc1ccc(C(=O)O)c(C(=O)O)c1)c1cccc([N+](=O)[O-])c1`, the IC50 in data set [1] is 1860 nM; in data set [3], 207 nM; in data set [4] it was 302 nM; in data set [2], 250 nM.

`O=C(Nc1cc2ccccc2cc1Oc1ccc(C(=O)O)c(C(=O)O)c1)c1cc(Cl)ccn1`: the 50% inhibitory concentration (IC50) stood at 12 nM in data set [1] and 2 nM in data set [2].

As for `O=C(Nc1c(F)cccc1Oc1ccc(C(=O)O)c(C(=O)O)c1)c1cc([N+](=O)[O-])ccn1`, the IC50 came to 9 nM in data set [1] and 1 nM in data set [2].

On to `Cc1ccnc(C(=O)Nc2cc3ccccc3cc2Oc2ccc(C(=O)O)c(C(=O)O)c2)c1`, for which the IC50 in data set [1] turned out to be 57 nM; in data set [2] it was 10 nM.

In the case of `O=C(Nc1ccccc1Oc1ccc(C(=O)O)c(C(=O)O)c1)c1cc(Cl)ccn1`, the IC50 in data set [1] amounted to 181 nM; in data set [3] it was 14 nM; in data set [4] it was 16 nM; in data set [2], 17 nM.

`O=C(Nc1cc2ccccc2cc1Oc1ccc(C(=O)O)c(C(=O)O)c1)c1cc([N+](=O)[O-])ccn1`: the figures for the IC50 in data set [1] and in data set [2] were 3 nM and 1 nM, respectively.

Consider `O=C(Nc1cc2ccccc2cc1Oc1ccc(C(=O)O)c(C(=O)O)c1)c1cc(C(F)(F)F)ccn1`, for which the IC50 in data set [1] came to 80 nM; in data set [2] it was 12 nM.

On to `COc1ccnc(C(=O)Nc2cc3ccccc3cc2Oc2ccc(C(=O)O)c(C(=O)O)c2)c1`, for which the IC50 amounted to 12 nM in data set [1] and 2 nM in data set [2].

As for `O=C(Nc1cc2ccccc2cc1Oc1ccc(C(=O)O)c(C(=O)O)c1)c1cccc([N+](=O)[O-])c1`, the results for the IC50 in data set [1] and in data set [2] were 140 nM and 23 nM, respectively.
